Values of other authors, collected in US20230279502A1, “IDENTIFICATION OF ESTROGEN RECEPTOR POSITIVE (ER+) BREAST CANCERS THAT WILL NOT DEVELOP TAMOXIFEN RESISTANCE” (Rutgers, The State University of New Jersey, priority 2020, published 2023).

What was measured:
human cancer cell lines = conditions: different human cancer cell lines, based on expression levels of the read-out genes; high AUCs = decreased sensitivity
ER+ breast cancers = conditions: ER+ breast cancer patients treated with tamoxifen

CC/C(=C(\c1ccccc1)c1ccc(OCCN(C)C)cc1)c1ccccc1 [tamoxifen]
Sensitivity to tamoxifen treatment (area under the dose-response curve) (human cancer cell lines): decreased sensitivity | Treated patients that develop therapeutic resistance (ER+ breast cancers): ~30%
